Data: the RepoRT retention time repository

Assay: Thermo Scientific Acclaim RSLC 120 C18, 100 × 2.1 mm, 2.2 µm, 30 °C, 0.2 to 0.48 mL/min, estimated dead time 1.1 min; A: 90% water + 10% methanol + 5 mM ammonium acetate; B: methanol + 5 mM ammonium acetate; gradient (min/%B) 0.1/1 3/39 14/99.9 16/99.9
Conditions: stereoisomer not certain

SMILES | LC retention time
CCOP(=S)(NC(C)C)Oc1ccccc1C(=O)OC(C)C (stereo unspecified) | 11.2 min
CC(C)C1CCC(C(=O)NC(Cc2ccccc2)C(=O)O)CC1 (stereo unspecified) | 11.4 min
CCC(C)C(=O)OC1CC(O)C=C2C=CC(C)C(CCC(O)CC(O)CC(=O)O)C21 (stereo unspecified) | 8.27 min
Cc1nnc(-c2ccccc2)c(=O)[nH]1 | 5.72 min
CCCCOc1cc(C(=O)NCCN(CC)CC)c2ccccc2n1 | 11.6 min
CC(C(=O)O)c1cccc(Oc2ccccc2)c1 (stereo unspecified) | 6.79 min
CCNCC(=O)Nc1c(C)cccc1C | 5.99 min
CCC1(O)C(=O)OCc2c1cc1n(c2=O)Cc2cc3c(CN(C)C)c(O)ccc3nc2-1 (stereo unspecified) | 5.61 min
CCCCCCC(C)(C)c1ccc(C2CCCC(O)C2)c(O)c1 (stereo unspecified) | 13.2 min
CCOC(=O)CSc1nc(C(C)(C)C)nn1C(=O)N(C)C | 6.37 min
COC=C(C(=O)O)c1ccccc1Oc1cc(Oc2ccccc2C#N)ncn1 | 7.94 min
COC(=O)NS(=O)(=O)c1ccc(N)cc1 | 1.46 min
CC12CCC3c4cc(O)c(O)cc4CCC3C1CCC2=O (stereo unspecified) | 9.74 min
CCc1ccc(C(=O)NN(C(=O)c2cc(C)cc(C)c2)C(C)(C)C)cc1 | 10.4 min
CC12CCC3C(CCC4CC(OC5OC(C(=O)O)C(O)C(O)C5O)CCC43C)C1CCC2=O (stereo unspecified) | 10.2 min
Oc1ccc(C=Cc2cc(O)cc(O)c2)cc1 | 6.82 min
NS(=O)(=O)Cc1noc2ccccc12 | 5.17 min
COC(=O)C1CC2=CC(=O)CCC2(C)C23OC2CC2(C)C(CCC24CCC(=O)O4)C13 (stereo unspecified) | 6.74 min
CNC(=O)Oc1cccc2ccccc12 | 7.42 min
CNC(=C[N+](=O)[O-])NCCS(=O)Cc1ccc(CN(C)C)o1 (stereo unspecified) | 3.93 min
CNCC(c1ccc(OC)cc1)C1(O)CCCCC1 (stereo unspecified) | 6.12 min
CC(C)CC(CN)CC(=O)O (stereo unspecified) | 4.04 min
CC1CC(C)C(=O)C(C(O)CC2CC(=O)NC(=O)C2)C1 (stereo unspecified) | 6.32 min

SMILES | LC retention time
O=c1[nH]c(=O)[nH]c(=O)[nH]1 | 1.34 min
CC12CCC3C(CC(O)C4=CC(=O)CCC43C)C1CCC2=O (stereo unspecified) | 6.99 min
CCC(CC)OC1C=C(C(=O)O)CC(N)C1NC(C)=O (stereo unspecified) | 4.92 min
S=c1[nH]c2ccccc2s1 | 6.58 min
COc1ccc(C(O)(c2cncnc2)C2CC2)cc1 (stereo unspecified) | 7.12 min
CC(C)Nc1nc(N)[nH]c(=O)n1 | 4.08 min
O=C(O)c1cccc(Oc2ccccc2)c1 | 7.77 min
CCc1cnc(C2=NC(C)(C(C)C)C(=O)N2)c(C(=O)O)c1 (stereo unspecified) | 4.32 min
COc1cc(C=CC(=O)CC(=O)C=Cc2ccc(O)c(OC)c2)ccc1O | 10 min
CCNC(=O)C(C)OC(=O)Nc1ccccc1 (stereo unspecified) | 6.54 min
CC(=O)Nc1ccc(S(=O)(=O)Nc2nc(C)cc(C)n2)cc1 | 5.06 min
CC1=C(C(=O)Nc2ccccc2)S(=O)(=O)CCO1 | 5.57 min
COC1CCC(OC2CC(C3OC(C)(O)C(C)CC3C)OC2C2(C)CCC(C3(C)CCC4(CC(O)C(C)C(C(C)C5OC(O)(CC(=O)O)C(C)C(O)C5OC)O4)O3)O2)OC1C (stereo unspecified) | 13.7 min
O=S(=O)(O)c1ccc2ccccc2c1 | 5.42 min
Cc1cccc(C)c1NC(=O)C1CCCCN1C (stereo unspecified) | 7.49 min
CCCCOc1ccc(CC(=O)NO)cc1 | 9.24 min
CC[N+]1([O-])CCCC1CNC(=O)c1cc(S(=O)(=O)CC)c(N)cc1OC (stereo unspecified) | 4.81 min
CC(C)NCC(O)COc1ccc(CC(=O)O)cc1 (stereo unspecified) | 3.58 min
Cc1cccc(C)c1N(Cn1cccn1)C(=O)CS(=O)(=O)O | 6.02 min
COC(=O)C(C)=COP(=S)(OC)OC | 5.12 min
CC[N+]([O-])(CC)CC(=O)Nc1c(C)cccc1C | 6.56 min
COC(=O)C(Cc1ccccc1)NC(=O)C(N)CC(=O)O (stereo unspecified) | 4.98 min
CC(C(=O)O)c1ccc(C(=O)c2cccs2)cc1 (stereo unspecified) | 8.96 min

SMILES | LC retention time
CC(C)c1ccc(NC(N)=O)cc1 | 8.81 min
CC1(C)SC2C(NC(=O)C(N)c3ccccc3)C(=O)N2C1C(=O)O (stereo unspecified) | 4.46 min
CNC(=O)Nc1nc2ccccc2s1 | 7.1 min
CCCCN1CCCCC1C(=O)Nc1c(C)cccc1C (stereo unspecified) | 10.7 min
Cc1ccc2n[nH]nc2c1 | 6.56 min
CC1(C)CC1C(=O)NC(=CCCCCSCC(N)C(=O)O)C(=O)O (stereo unspecified) | 4.91 min
CSC1=NC(C)(c2ccccc2)C(=O)N1Nc1ccccc1 (stereo unspecified) | 9.18 min
CC12C=CC3=C4CCC(=O)C=C4CCC3C1CCC2O (stereo unspecified) | 9.17 min
COCCCOc1cc(CC(CC(N)C(O)CC(C(=O)NCC(C)(C)C(N)=O)C(C)C)C(C)C)ccc1OC (stereo unspecified) | 10.9 min
O=C1CC(C(=O)O)CC(=O)C1=C(O)C1CC1 (stereo unspecified) | 1.49 min
Cc1nnc(-c2ccccc2)c(=O)n1N | 5.22 min
CCCCc1c(C)nc(NCC)nc1OS(=O)(=O)N(C)C | 10.5 min
CC(C)C(N)C(=O)OCC(CO)OCn1cnc2c(=O)[nH]c(N)nc21 (stereo unspecified) | 4.08 min
COc1cc(OC)nc(NC(=O)NS(=O)(=O)c2cc(NC=O)ccc2C(=O)N(C)C)n1 | 5.62 min
NC(=O)N=C(N)N | 1.73 min
CCCCC1C(=O)N(c2ccccc2)N(c2ccccc2)C1=O | 7.46 min
CNCC(O)c1ccc(O)cc1 (stereo unspecified) | 2.26 min
COC(=O)c1ccccc1S(=O)(=O)NC(=O)Nc1nc(C)cc(C)n1 | 5.03 min
CNC(=O)Oc1cccc2c1OC(C)(C)C2O (stereo unspecified) | 5.09 min
CCOP(=S)(OCC)SCS(=O)(=O)C(C)(C)C | 8.98 min
CCCCc1ncc(C=C(Cc2cccs2)C(=O)O)n1Cc1ccc(C(=O)O)cc1 | 6.51 min
CNC(=O)N(C)c1nnc(C(C)(C)C)s1 | 7.21 min
COP(=O)(NC(C)=O)SC (stereo unspecified) | 3.09 min

SMILES | LC retention time
CCNc1nc(NC(C)(C)C)[nH]c(=O)n1 | 8.46 min
CCOC(=O)C1=CC(OC(CC)CC)C(NC(C)=O)C(N)C1 (stereo unspecified) | 8.79 min
CC12C=CC(=O)C=C1CCC1C2C(O)CC2(C)C1CCC2(O)C(=O)CO (stereo unspecified) | 8.92 min
O=[N+]([O-])c1cc(C2CCCCC2)c(O)c([N+](=O)[O-])c1 | 9.19 min
CC(CCC(=O)O)C1CCC2C3C(O)CC4CC(O)CCC4(C)C3CCC12C (stereo unspecified) | 11.1 min
C=CCC1(C(C)CCC)C(=O)NC(=O)NC1=O (stereo unspecified) | 8.39 min
COC(=O)c1sccc1S(=O)(=O)NC(=O)Nc1nc(C)nc(OC)n1 | 4.52 min
COP(=S)(OC)Oc1ccc(S(N)(=O)=O)cc1 | 6.16 min
CC(C)(c1ccc(O)cc1)c1ccc(O)cc1 | 8.49 min
CCc1cccc(C)c1N(C(=O)C(=O)O)C(C)COC (stereo unspecified) | 8.29 min
CCCN(CCC)c1c([N+](=O)[O-])cc(S(N)(=O)=O)cc1[N+](=O)[O-] | 10.2 min
CSc1nnc(C(C)(C)C)c(=O)n1N | 7.04 min
COC(=O)c1ccccc1S(=O)(=O)NC(=O)Nc1nc(C)nc(OC)n1 | 4.51 min
CC(C)(C)c1cc(C(C)(C)C)c(O)c(C(C)(C)C)c1 | 14.6 min
COC(=O)c1ccc(C)cc1C1=NC(C)(C(C)C)C(=O)N1 (stereo unspecified) | 7.15 min
CCCCC1=NC2(CCCC2)C(=O)N1Cc1ccc(-c2ccccc2-c2nn[nH]n2)cc1 | 10.1 min
CC1=CC(=O)CC2CCC3C4CCC(O)C4(C)CCC3C12C (stereo unspecified) | 13.8 min
CCOP(=O)(NC(C)C)Oc1ccc(SC)c(C)c1 (stereo unspecified) | 10.4 min
CC(C)c1nc(CN(C)C(=O)NC(C(=O)NC(Cc2ccccc2)CC(O)C(Cc2ccccc2)NC(=O)OCc2cncs2)C(C)C)cs1 (stereo unspecified) | 12.5 min
COC(=O)C(Cc1ccccc1)NC(=O)C(CC(=O)O)NCCC(C)(C)C (stereo unspecified) | 10.2 min
CC1=NNC(=O)N(N=Cc2cccnc2)C1 | 4.13 min
COc1ccc2cc(C(C)C(=O)O)ccc2c1 (stereo unspecified) | 6.74 min
CC(C)(C)CC(C)(C)c1ccc(O)cc1 | 12.3 min

SMILES | LC retention time
CC12CCC(=O)C=C1C(O)CC1C2CCC2(C)C(O)CCC12 (stereo unspecified) | 6.61 min
CCNC1CN(CCCOC)S(=O)(=O)c2sc(S(N)(=O)=O)cc21 (stereo unspecified) | 5.74 min
CC(C)(C)NCC(O)c1ccc(O)c(CO)c1 (stereo unspecified) | 4.06 min
CCCCNc1cc(C(=O)O)cc(S(N)(=O)=O)c1Oc1ccccc1 | 6.73 min
CC(=O)Nc1ccc(S(=O)(=O)Nc2nccs2)cc1 | 4.61 min
CCC(C(=O)O)C1CCC(C)C(C(C)C(O)C(C)C(=O)C(CC)C2OC3(C=CC(O)C4(CCC(C)(C5CCC(O)(CC)C(C)O5)O4)O3)C(C)CC2C)O1 (stereo unspecified) | 14.7 min
COCC(C)N(C(=O)C(=O)O)c1c(C)csc1C (stereo unspecified) | 6.97 min
CS(=O)(=O)Nc1ccc([N+](=O)[O-])cc1Oc1ccccc1 | 8.24 min
Oc1ccccc1-c1ccccc1 | 9.09 min
CCCCc1c(C)nc(N(C)C)[nH]c1=O | 7.97 min
S=c1nc[nH]c2nc[nH]c12 | 2.62 min
COCCN(C(=O)CS(=O)(=O)O)c1c(C)cccc1C | 6.16 min
CC(C)CN(CC(O)C(Cc1ccccc1)NC(=O)OC1COC2OCCC12)S(=O)(=O)c1ccc(N)cc1 (stereo unspecified) | 9.37 min
Cc1cccc(Nc2ccncc2S(=O)(=O)NC(=O)NC(C)C)c1 | 8.29 min
COC(=O)NC(=S)Nc1ccccc1NC(=S)NC(=O)OC | 6.88 min
CC(C)CC(C)Nc1ccc(Nc2ccccc2)cc1 (stereo unspecified) | 11.8 min
CCCCCc1cc(O)c2c(c1)OC(C)(C)C1CCC(CO)=CC21 (stereo unspecified) | 12.3 min
CC(C)(C)c1n[nH]c(=O)n(N)c1=O | 6.67 min
CCOC(=O)NCCOc1ccc(Oc2ccccc2)cc1 | 10.6 min
